According to PMC8294567, “Associations between plasma nucleoside reverse transcriptase inhibitors concentrations and cognitive function in people with HIV” (PLoS ONE, 2021):
Where a name gives a salt, the structure may show the parent alone.

Tests used:
[1] = Plasma NRTI concentrations and population PK parameters (POPPY study)
Protocol: (§1) NRTI concentrations were measured by a validated method on ultra-performance liquid chromatography (ACQUITY, Waters) in plasma samples collected at study baseline. Briefly, 200 μL of plasma was subjected to solid phase extraction (MCX cartridge, Waters) and the elutants were dried under nitrogen stream before being re-constituted in 50 μL of water. The NRTI drugs were separated using a C18 BEH column (1.7 μm, 2.1 mm x 100 mm, Waters). For each of the four NRTIs, population PK models were determined using nonlinear mixed effects (NONMEM v.7.3) using the $PRIOR subroutine to stabilise the models and aid partition of inter-individual and residual variabilities. The impact of covariates on antiretroviral apparent oral clearance was evaluated. […] Model fit was assessed by statistical and graphical methods.

[2] = human, in vivo
Protocol: as §1, with “methods. A decrease in the minimal objective function value (-2*log likelihood) of at least 3.84 units (corresponding to a p-value<0.05) was required to accept a model with an extra parameter. Once significant covariates were incorporated, a backwards elimination process was performed and biologically plausible covariates generating an increase in the objective function value of at least 10.83 (i.e. p<0.001) units were retained.” for “methods.”
Continuous variables, including PK parameters and cognitive z-scores, were summarized using the median and the interquartile range (IQR); categorical variables were described using frequencies and percentages. Associations between NRTI PK parameters and cognitive z-scores were assessed using a series of rank regression models, one for each combination of cognitive domain/global score, NRTI and PK parameter (7x4x3 models). In each model, the cognitive score was considered as the dependent variable and the NRTI PK parameter as an independent variable in addition to the following confounders, selected a priori: age, gender, ethnicity, education, recreational drug use, alcohol consumption, glomerular filtration rate (estimated using the Chronic Kidney Disease Epidemiology Collaboration equation [15]), depressive symptoms (assessed via the Patient Health Questionnaire-9 [16]) use of ritonavir/cobicistat boosted protease inhibitor and use of efavirenz. […] Multivariable analyses were conducted as follows, in order to investigate associations of each PK parameter for one NRTI, independently of the concentration of the other NRTI in the regimen. […] All analyses were performed using the statistical software SAS v9.4 with p-values <0.05 considered as statistically significant.

cognitive function = details: cited from earlier work
[3] = design: method as in PMID 16390539; details: cited from earlier work
[4] = PWH on cART, median (IQR), from population PK model

| Ctrough [1, 4] | AUC(0-t) ([1]; human, po) | Cmax ([1]; human, po) | Eta^2, Age vs Ctrough [2] | Eta^2, Alcohol consumption vs Ctrough [2] | Eta^2, BMI vs Ctrough [2] | Eta^2, Education vs Ctrough [2] | Eta^2, Ethnicity vs Ctrough [2] | Eta^2, Gender vs Ctrough [2] | Eta^2, PHQ-9 score vs Ctrough [2] | Eta^2, Recreational drug use vs Ctrough [2] | Eta^2, Use of Efavirenz vs Ctrough [2] | Eta^2, Use of boosted PI vs Ctrough [2] | Eta^2, eGFR vs Ctrough [2] | Eta^2, Age vs AUC0-24 [2] | Eta^2, Age vs Cmax [2] | Eta^2, Alcohol consumption vs AUC0-24 [2] | Eta^2, Alcohol consumption vs Cmax [2] | Eta^2, BMI vs AUC0-24 [2] | Eta^2, BMI vs Cmax [2] | SMILES | further results |
| --- | --- | --- | --- | --- | --- | --- | --- | --- | --- | --- | --- | --- | --- | --- | --- | --- | --- | --- | --- | --- | --- |
| 3TC: 12.4 (3.0, 126.7) μg/l | 9900 ng·h/mL | 2400 ng/mL | 0.101 | 0.005 | 0.002 | 0.084 | 0.021 | 0.002 | 0.015 | 0.014 | 0.041 | 0.039 | 0.230 |  |  |  |  |  |  | Nc1ccn([C@@H]2CS[C@H](CO)O2)c(=O)n1 [3TC, lamivudine] |  |
| ABC: 2.6 (1.4, 4.6) μg/l | 12700 ng·h/mL | 4200 ng/mL | 0.069 | 0.008 | 0.000 | 0.114 | 0.002 | 0.001 | 0.000 | 0.010 | 0.040 | 0.059 | 0.089 | 0.005 | 0.017 | 0.002 | 0.000 | 0.010 | 0.014 | Nc1nc(NC2CC2)c2ncn([C@H]3C=C[C@@H](CO)C3)c2n1 [ABC, abacavir] | Eta^2, Education vs AUC0-24 [2]: 0.071; Eta^2, Education vs Cmax [2]: 0.033; Eta^2, Ethnicity vs AUC0-24 [2]: 0.011; Eta^2, Ethnicity vs Cmax [2]: 0.025; Eta^2, Gender vs AUC0-24 [2]: 0.036; Eta^2, Gender vs Cmax [2]: 0.034; Eta^2, PHQ-9 score vs AUC0-24 [2]: 0.000; Eta^2, PHQ-9 score vs Cmax [2]: 0.001; Eta^2, Recreational drug use vs AUC0-24 [2]: 0.027; Eta^2, Recreational drug use vs Cmax [2]: 0.009; Eta^2, Use of Efavirenz vs AUC0-24 [2]: 0.016; Eta^2, Use of Efavirenz vs Cmax [2]: 0.000; Eta^2, Use of boosted PI vs AUC0-24 [2]: 0.053; Eta^2, Use of boosted PI vs Cmax [2]: 0.008; Eta^2, eGFR vs AUC0-24 [2]: 0.039; Eta^2, eGFR vs Cmax [2]: 0.000; effect on cognitive performance (cognitive function; cohort study): beneficial effect; cognitive function after ABC initiation (cognitive function; randomized controlled trial, PWH with HIV-associated dementia): no improvement of cognitive function |
| FTC: 75.0 (59.0, 99.0) μg/l | 10400 ng·h/mL | 1100 ng/mL | 0.099 | 0.001 | 0.000 | 0.013 | 0.005 | 0.000 | 0.004 | 0.025 | 0.005 | 0.005 | 0.083 | 0.157 | 0.189 | 0.000 | 0.000 | 0.000 | 0.000 | Nc1nc(=O)n([C@@H]2CS[C@H](CO)O2)cc1F [FTC, emtricitabine] | Eta^2, Education vs AUC0-24 [2]: 0.013; Eta^2, Education vs Cmax [2]: 0.011; Eta^2, Ethnicity vs AUC0-24 [2]: 0.010; Eta^2, Ethnicity vs Cmax [2]: 0.014; Eta^2, Gender vs AUC0-24 [2]: 0.000; Eta^2, Gender vs Cmax [2]: 0.000; Eta^2, PHQ-9 score vs AUC0-24 [2]: 0.004; Eta^2, PHQ-9 score vs Cmax [2]: 0.002; Eta^2, Recreational drug use vs AUC0-24 [2]: 0.030; Eta^2, Recreational drug use vs Cmax [2]: 0.033; Eta^2, Use of Efavirenz vs AUC0-24 [2]: 0.008; Eta^2, Use of Efavirenz vs Cmax [2]: 0.008; Eta^2, Use of boosted PI vs AUC0-24 [2]: 0.008; Eta^2, Use of boosted PI vs Cmax [2]: 0.008; Eta^2, eGFR vs Cmax [2]: 0.172 |
|  |  |  |  |  |  |  |  |  |  |  |  |  |  |  |  |  |  |  |  | CC(C)OC(=O)[C@H](C)N[P@](=O)(CO[C@H](C)Cn1cnc2c(N)ncnc21)Oc1ccccc1 [TAF, tenofovir alafenamide] | cognitive performances on switching from TDF to TAF (cognitive function; PWH switching from TDF to TAF): no changes in cognitive performances |
|  |  |  | 0.075 | 0.001 | 0.013 | 0.011 | 0.011 | 0.001 | 0.002 | 0.012 | 0.005 | 0.004 | 0.135 | 0.070 | 0.028 | 0.002 | 0.005 | 0.095 | 0.271 | CC(C)OC(=O)OCOP(=O)(CO[C@H](C)Cn1cnc2c(N)ncnc21)OCOC(=O)OC(C)C [TDF, tenofovir disoproxil fumarate] | Eta^2, Education vs AUC0-24 [2]: 0.016; Eta^2, Education vs Cmax [2]: 0.020; Eta^2, Ethnicity vs AUC0-24 [2]: 0.007; Eta^2, Ethnicity vs Cmax [2]: 0.000; Eta^2, Gender vs AUC0-24 [2]: 0.009; Eta^2, Gender vs Cmax [2]: 0.033; Eta^2, PHQ-9 score vs AUC0-24 [2]: 0.001; Eta^2, PHQ-9 score vs Cmax [2]: 0.001; Eta^2, Recreational drug use vs AUC0-24 [2]: 0.007; Eta^2, Recreational drug use vs Cmax [2]: 0.000; Eta^2, Use of Efavirenz vs AUC0-24 [2]: 0.003; Eta^2, Use of Efavirenz vs Cmax [2]: 0.000; Eta^2, Use of boosted PI vs AUC0-24 [2]: 0.004; Eta^2, Use of boosted PI vs Cmax [2]: 0.002; Eta^2, eGFR vs AUC0-24 [2]: 0.124; Eta^2, eGFR vs Cmax [2]: 0.042; CNS penetration [3]: low CNS penetration |
| TFV: 53.0 (44.0, 67.0) μg/l | 2700 ng·h/mL |  |  |  |  |  |  |  |  |  |  |  |  |  |  |  |  |  |  | C[C@H](Cn1cnc2c(N)ncnc21)OCP(=O)(O)O [TFV, tenofovir] | Cmax [1, 4]: TFV: 0.3 (0.2, 0.3) mg/l |
